These are literature values, as cited in patent US5186913A, “Tungsten-188/carrier-free rhenium-188 perrhenic acid generator system” (Martin Marietta Energy Systems, Inc., priority 1991, dated 1993).

Where two headings read alike, the source gives them in different places.

For orientation: half-life means the time needed for the level to fall by half in the phase considered.

Assay in series [1]: not given
The source holds these as a separate data set.

Regarding `[188W]` [W-188, tungsten-188], the t1/2 (radioactive decay, parent isotope) was 69.4 days.
As for `[188Re]` [Re-188, Rhenium-188], the “energy of gamma photon” value (gamma emission) is given as 155 keV. For the same compound, under “gamma photon of 155 keV”, the “abundance of gamma photon” value was “about 15%”. The half-life (radioactive decay) is 0.704 days. The “average energy of β emission” value (β emission) was 764 keV.
`[Re]` [Re, Rhenium]: the “distribution coefficient Dv (amount absorbed per liter resin bed/amount per liter solution)” value is on record as 1×10^3 in series [1] (0.1M HNO3) and ~ 1 in series [1] (6M HNO3).
